Data published in patent publication US7323541B2, “Polypeptide DNA thereof and use of the same” (Takeda Pharmaceutical Company Limited, priority 2001, dated 2008).

Assays:
Type in all cases: cell-based, human
COLO 205 = test: Apoptosis induction (Cell Death Detection ELISA PLUS); details: for Apoptosis inducing activity (A405-A492), Average: COLO 205, oligonucleotide 200 nM, three days
Protocol: (§1) Human colon cancer cell line COLO 205 acquired from ATCC was suspended in the RPMI-1640 medium (containing 25 mM HEPES) supplemented with 10% fetal calf serum (ATCC), and seeded at the cell density of 4000 per well in 96-well collagen type I coated plate (IWAKI). Human colon cancer cell line LS 174T acquired from ATCC was suspended in the Eagle's MEM, which is supplied from Invitrogen, supplemented with 10% fetal calf serum (ATCC), and seeded at the cell density of 3000 per well in 96-well flat bottom culture plate (BD Falcon). Human colon cancer cell line HCT 116 (ATCC) was suspended in D-MEM medium (containing 10 mM HEPES), which is supplied from Invitrogen, supplemented with 10% fetal calf serum (ATCC), and seeded at the cell density of 3000 per well in 96-well flat bottom culture plate (BD Falcon). After incubation under 5% CO2 gas flow at 37° C. for overnight, antisense oligonucleotide was transfected.
(§2) Antisense oligonucleotide sequence (SEQ ID NO: 123), which hybridizes to the translation region of TGR23 gene, was designed. Phosphorothioate-oligonucleotide was synthesized and purified by HPLC to use the transfection experiment (hereinafter, referred to as antisense oligonucleotide). For control, a reverse sequence (SEQ ID NO: 124) of the base sequence represented by SEQ ID NO: 123 was phosphorothioated and purified by HPLC to use (hereinafter, referred to as control oligonucleotide).
(§3) Specifically, in the case of COLO 205, to FuGENE™6 Transfection Reagent (Roche Diagnostics), which was diluted 167 fold with Opti-MEM I (Invitrogen), antisense oligonucleotide or control oligonucleotide was added. The mixed oligonucleotide solution was added to the plate at the ratio of 65 μl per well. The final concentration of oligonucleotide was adjusted to 200 nM. In the case of LS 174T, to Lipofectamine™2000 (Invitrogen), which was diluted 32 fold with Opti-MEM I (Invitrogen), antisense oligonucleotide or control oligonucleotide, which was diluted with Opti-MEM I (Invitrogen), was added at the ratio of 1:1. The mixed oligonucleotide solution was added to the plate at the ratio of 50 μl per well. The final concentration of oligonucleotide was adjusted to 33 nM. In the case of HCT 116, to OLIGOFECTAMINE™ Reagent (Invitrogen), which was diluted 5 fold with Opti-MEM I (Invitrogen), antisense oligonucleotide or control oligonucleotide, which was diluted with Opti-MEM I (Invitrogen), was added at the ratio of 3:8. The mixed oligonucleotide solution was added to the plate at the ratio of 40 μl per well. The final concentration of oligonucleotide was adjusted to 520 nM.
(§4) Under the above conditions, culture was continued for further three days. Using Cell Death Detection ELISA^PLUS Kit (Roche Diagnostics), in accordance with the attached protocol, apopyosis induction activity by the above oligonucleotide was measured.

LS 174T = test: as above; details: for Apoptosis inducing activity (A405-A492), Average: LS174T, oligonucleotide 33 nM, three days
Protocol: as §1, §2, §3, §4

HCT 116 = test: as above; details: for Apoptosis inducing activity (A405-A492), Average: HCT 116, oligonucleotide 520 nM, three days
Protocol: as §1, §2, §3, §4

TGR23 gene in COLO 205 = test: Reduction of TGR23 gene expression (TaqMan PCR); details: COLO 205, overnight after transfection
Protocol: (§5) The human colon cancer cell lines COLO 205 and LS 174T, wherein both were used in Example 46, were suspended in the same medium as that used in Example 46. The COLO 205 was seeded at the cell density of 24,000 per well to 24-well collagen type I coated plate (IWAKI), and the LS 174T was seeded at the cell density of 18,000 per well to 24-well flat bottom tissue culture plate (BD Falcon). After cell culture under 5% CO2 gas flow at 37° C. for overnight, in accordance with the method described in Example 46, the antisense oligonucleotide and control oligonucleotide, wherein both were used in Example 46, were transfected. Herein, adding volume of the oligonucleotide solution per well was 390 μl for COLO 205 and 300 μl for LS 174T. After transfection, the cells were cultured under 5% CO2 gas flow at 37° C. for overnight. Subsequently, using RNeasy Mini Total RNA Kit (QIAGEN), total RNA was extracted. Using the thus obtained total RNA as a template and TaqMan Reverse Transcription Reagents (Applied Biosystems), according to the attached protocol, reverse transcription reaction was carried out. Then using TaqMan Universal PCR Master Mix (Applied Biosystems), to the reaction sixture, cDNA corresponding 1.5 to 3 ng of total RNA as a template, 500 nM each of two primers (SEQ ID NO: 9 and SEQ ID NO: 10) and 100 nM FM-labeled probe (SEQ ID NO: 11) were added. The expressed copy numbers of the TGR23 gene were measured. The PCR reaction comprised the incubation at 50° C. for 2 minutes and 95° C. for 10 minutes, followed by the cycle set to include at 95° C. for 15 seconds and at 60° C. for one minute, which is repeated 40 times. When the antisense oligonucleotide and the control oligonucleotide were not transfected, an expression level of the TGR23 gene per 1 ng of total RNA was 620 copies for COLO 205 and 290 copies for LS 174T, whereas in the group with antisense oligonucleotide, it was 210 copies for COLO 205 and 150 copies for LS 174T. […] On the other hand, in the group with control oligonucleotide used as a negative control, the expression was 590 copies for COLO 205 and 280 copies for LS 174T, wherein it was not observed a statistically significant reduction of expression level, compared with non-transfection group.

TGR23 gene in LS 174T = test: Reduction of TGR23 gene expression (TaqMan PCR); details: overnight after transfection
Protocol: as §5

| Substance | Apoptosis inducing activity (A405-A492), Average (COLO 205) | apoptosis induction activity relative to control oligonucleotide (COLO 205; COLO 205, p≦0.05) [fold] | Apoptosis inducing activity (A405-A492), Average (LS 174T) | apoptosis induction activity relative to control oligonucleotide (LS 174T; LS 174T, p≦0.01) [fold] | apoptosis induction activity compared with control oligonucleotide (HCT 116; HCT 116, in which TGR23 is not expressed) | Apoptosis inducing activity (A405-A492), Average (HCT 116) | expression level of the TGR23 gene per 1 ng of total RNA (TGR23 gene in COLO 205) [copies] | expression level of the TGR23 gene per 1 ng of total RNA (TGR23 gene in LS 174T) [copies] |
| --- | --- | --- | --- | --- | --- | --- | --- | --- |
| antisense oligonucleotide: phosphorothioate oligonucleotide which hybridizes to the translation region of TGR23 gene (antisense GACCCACAGAGTTATCAATT; DNA, all phosphorothioate, methylation of C not given here) | 0.83 | 1.6 | 1.1 | 1.3 | did not exhibit a significant apoptosis induction activity | 0.68 | 210 | 150 |
| control oligonucleotide: phosphorothioated reverse sequence of SEQ ID NO: 123, negative control (TTAACTATTGAGACACCCAG; DNA, all phosphorothioate, methylation of C not given here) [reference compound] | 0.52 | – | 0.88 | – | – | 0.72 | 590 | 280 |
